Patent US8293736B2, “Purine compounds selective for PI3K P110 delta, and methods of use” (F. Hoffmann la Roche AG, priority 2010, dated 2012)
Values belong to the molecule of their own block, whether it stands above or below them.

What was measured:
p110 alpha = molecular target: T1, p110 alpha (Homo sapiens, UniProt P42336); test: PI3K isoform inhibition assay (fluorescence polarization), p110 alpha; type: biochemical; conditions: delta/alpha selectivity ratio
T1 construct: purchased Upstate Group, Millipore; Dundee, UK
T1 sequence (P42336 whole entry, species assumed, canonical isoform): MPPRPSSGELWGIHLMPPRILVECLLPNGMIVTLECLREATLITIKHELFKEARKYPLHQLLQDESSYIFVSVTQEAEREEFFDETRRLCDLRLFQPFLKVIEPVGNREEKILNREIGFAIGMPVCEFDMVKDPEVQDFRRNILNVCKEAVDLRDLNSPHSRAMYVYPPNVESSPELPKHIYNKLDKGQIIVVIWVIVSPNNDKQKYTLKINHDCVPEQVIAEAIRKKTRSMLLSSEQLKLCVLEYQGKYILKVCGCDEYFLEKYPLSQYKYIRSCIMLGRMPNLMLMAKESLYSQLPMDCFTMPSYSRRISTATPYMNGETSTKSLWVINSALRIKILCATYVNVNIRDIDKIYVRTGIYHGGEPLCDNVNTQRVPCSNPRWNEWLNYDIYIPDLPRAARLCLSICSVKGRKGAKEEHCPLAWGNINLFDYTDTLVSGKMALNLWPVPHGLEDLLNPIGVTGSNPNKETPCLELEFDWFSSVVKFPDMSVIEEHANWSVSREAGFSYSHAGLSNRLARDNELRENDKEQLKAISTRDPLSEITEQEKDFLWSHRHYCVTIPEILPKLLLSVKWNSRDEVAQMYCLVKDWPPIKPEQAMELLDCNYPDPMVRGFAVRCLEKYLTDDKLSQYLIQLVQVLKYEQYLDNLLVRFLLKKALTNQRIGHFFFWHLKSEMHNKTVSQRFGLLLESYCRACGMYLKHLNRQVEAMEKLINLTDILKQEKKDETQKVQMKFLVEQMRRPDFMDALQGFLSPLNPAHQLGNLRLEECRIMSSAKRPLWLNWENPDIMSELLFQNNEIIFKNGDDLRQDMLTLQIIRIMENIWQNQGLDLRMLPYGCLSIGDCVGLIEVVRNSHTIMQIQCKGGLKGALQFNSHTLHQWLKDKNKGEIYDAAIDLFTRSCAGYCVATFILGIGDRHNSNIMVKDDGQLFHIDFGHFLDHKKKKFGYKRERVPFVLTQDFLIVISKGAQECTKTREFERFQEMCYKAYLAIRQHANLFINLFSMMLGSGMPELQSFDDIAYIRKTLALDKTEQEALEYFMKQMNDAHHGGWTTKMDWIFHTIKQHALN
T1 sequence (P27986 whole entry partner, species assumed, canonical isoform): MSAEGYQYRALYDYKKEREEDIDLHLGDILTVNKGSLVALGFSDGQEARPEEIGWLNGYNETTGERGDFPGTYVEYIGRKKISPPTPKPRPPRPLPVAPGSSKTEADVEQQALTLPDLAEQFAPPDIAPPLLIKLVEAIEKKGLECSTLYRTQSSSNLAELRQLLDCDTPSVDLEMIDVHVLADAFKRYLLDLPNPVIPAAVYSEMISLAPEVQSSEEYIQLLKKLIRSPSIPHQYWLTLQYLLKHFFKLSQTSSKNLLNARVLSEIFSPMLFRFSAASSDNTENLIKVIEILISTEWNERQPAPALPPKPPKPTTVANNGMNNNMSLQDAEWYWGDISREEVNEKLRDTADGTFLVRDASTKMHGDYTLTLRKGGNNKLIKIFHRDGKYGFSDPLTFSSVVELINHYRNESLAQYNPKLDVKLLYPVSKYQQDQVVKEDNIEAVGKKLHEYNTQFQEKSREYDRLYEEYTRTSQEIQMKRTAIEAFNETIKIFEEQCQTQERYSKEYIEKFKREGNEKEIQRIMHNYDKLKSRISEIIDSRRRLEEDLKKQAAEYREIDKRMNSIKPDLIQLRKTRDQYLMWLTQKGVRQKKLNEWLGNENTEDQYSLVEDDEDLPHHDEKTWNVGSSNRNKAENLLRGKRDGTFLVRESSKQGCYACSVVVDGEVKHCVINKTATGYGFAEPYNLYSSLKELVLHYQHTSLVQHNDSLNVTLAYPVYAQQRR
Description: (§1) Determination of the activity of PI3 kinase activity of Formula I compounds is possible by a number of direct and indirect detection methods.
(§2) PI3K enzymatic activity was assayed by measuring the amount of product phosphatidylinositol 3,4,5-phosphate (PIP3) formed from substrate 4,5 phosphatidylinositol 4,5-phosphate (PIP2) using a fluorescence polarization displacement assay. The decrease in fluorescence polarization of a fluorescent PIP3 probe is measured as it is displaced from a PIP3-binding protein GRP-1 detector by PI3K-catalyzed product. […] The kinase reactions were initiated by the addition of 40 ng/mL p110α/p85α, 300 ng/mL p110β/p85α, 40 ng/mL p110γ, or 40 ng/mL p110δ/p85α (Upstate Group, Millipore; Dundee, UK), and 10 μM PIP2 (Echelon Biosciences) to the wells. […] After 60 minutes of incubation at room temperature to allow equilibration of labeled and unlabeled PIP3 binding, the parallel and perpendicular components of the fluorescence emissions from each sample were measured at an excitation wavelength of 530 nm and an emission wavelength of 590 nm using an Envision fluorescent plate reader with a rhodamine filter (PerkinElmer Life and Analytical Sciences; Wellesley, Mass.). The assay is capable of detecting 0.1-2.0 μM PIP3 product. The Ki apparent values were obtained by fitting the dose-dependent inhibition data to the Morrison equation for tight-binding, competitive inhibitors. Reference: R. A. Copeland, Enzymes. “A Practical Introduction to Structure, Mechanism and Data Analysis”.
The same protocol may be used to establish Ki values for p110α (alpha) PI3K binding.
The four Class I PI 3-kinases are cloned into baculovirus vectors as follows: […]

p110 delta = molecular target: T2, p110 delta (Homo sapiens, UniProt O00329); test: PI3K isoform inhibition assay (fluorescence polarization), p110 delta; type: biochemical; conditions: Ki apparent, Morrison equation; 25 μM ATP, 10 μM PIP2
T2 construct: purchased Upstate Group, Millipore; Dundee, UK
T2 sequence (O00329 whole entry, canonical isoform): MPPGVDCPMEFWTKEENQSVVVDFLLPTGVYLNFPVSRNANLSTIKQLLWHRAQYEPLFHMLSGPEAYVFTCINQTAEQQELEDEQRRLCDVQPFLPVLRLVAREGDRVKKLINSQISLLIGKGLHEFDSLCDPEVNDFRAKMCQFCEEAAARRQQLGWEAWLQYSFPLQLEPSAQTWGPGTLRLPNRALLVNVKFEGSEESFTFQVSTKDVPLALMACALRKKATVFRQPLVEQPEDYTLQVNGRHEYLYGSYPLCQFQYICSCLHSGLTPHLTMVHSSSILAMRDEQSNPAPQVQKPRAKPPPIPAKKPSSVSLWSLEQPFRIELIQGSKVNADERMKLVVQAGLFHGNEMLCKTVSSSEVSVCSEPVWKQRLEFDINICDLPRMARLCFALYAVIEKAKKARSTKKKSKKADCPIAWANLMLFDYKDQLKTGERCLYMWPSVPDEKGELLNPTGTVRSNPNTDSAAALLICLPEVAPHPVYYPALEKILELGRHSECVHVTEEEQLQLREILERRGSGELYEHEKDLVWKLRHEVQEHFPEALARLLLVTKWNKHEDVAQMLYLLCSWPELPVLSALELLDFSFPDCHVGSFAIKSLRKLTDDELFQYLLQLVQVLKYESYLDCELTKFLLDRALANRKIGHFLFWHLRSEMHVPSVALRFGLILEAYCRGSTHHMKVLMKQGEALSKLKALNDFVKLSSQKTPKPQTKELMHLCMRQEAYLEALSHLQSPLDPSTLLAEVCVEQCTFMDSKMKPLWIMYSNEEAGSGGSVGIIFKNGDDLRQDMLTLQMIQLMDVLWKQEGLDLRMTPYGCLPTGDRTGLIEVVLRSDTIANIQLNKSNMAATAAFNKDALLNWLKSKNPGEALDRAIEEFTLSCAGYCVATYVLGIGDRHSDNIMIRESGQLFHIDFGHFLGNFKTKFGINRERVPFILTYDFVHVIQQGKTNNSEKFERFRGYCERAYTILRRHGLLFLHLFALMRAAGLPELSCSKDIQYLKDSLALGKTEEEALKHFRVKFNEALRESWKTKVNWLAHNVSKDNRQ
T2 sequence (P27986 whole entry partner, canonical isoform): as the sequence (P27986 whole entry partner, species assumed, canonical isoform) above
Description: as §1, §2
The Formula I compound was serially diluted in 100% DMSO. The kinase reaction was incubated for 1 h at room temperature, and the reaction was terminated by the addition of PBS. IC50 values were subsequently determined using sigmoidal dose-response curve fit (variable slope). […]

Compound: CC(C)C(=O)N1CC(Oc2nc3c(N4CCOCC4)nc(-c4c(F)ccc5[nH]ccc45)nc3n2C)C1 [Compound 126, 1-(3-(2-(5-fluoro-1H-indol-4-yl)-9-methyl-6-morpholino-9H-purin-8-yloxy)azetidin-1-yl)-2-methylpropan-1-one]
Ki p110 alpha/ Ki p110 delta (p110 alpha): 88
Ki (p110 delta): 1 nM

Compound: CCc1nc2ccccc2n1-c1nc(N2CCOCC2)c2nc(OC3CCN(C4CCC(O)CC4)CC3)n(C)c2n1 (single isomer, unassigned) [Compound 130, 4-(4-(2-(2-ethyl-1H-benzo[d]imidazol-1-yl)-9-methyl-6-morpholino-9H-purin-8-yloxy)piperidin-1-yl)cyclohexanol]
Ki p110 alpha/ Ki p110 delta (p110 alpha): 151
Ki (p110 delta): 0.594 nM

Compound: CCc1nc2ccccc2n1-c1nc(N2CCOCC2)c2nc(OC3CN(C(=O)[C@H]4CC45CCC5)C3)n(C)c2n1 [Compound 152, (S)-(3-(2-(2-ethyl-1H-benzo [d]imidazol-1-yl)-9-methyl-6-morpholino-9H-purin-8-yloxy)azetidin-1-yl) (spiro[2.3]hexan-1-yl) methanone]
Ki p110 alpha/ Ki p110 delta (p110 alpha): 107
Ki (p110 delta): 0.701 nM

Compound: CC(C)C(=O)N1CC(Oc2nc3c(N4CCOCC4)nc(-n4c(C(C)(F)F)nc5ccccc54)nc3n2C)C1 [Compound 132, 1-(3-(2-(2-(1,1-difluoroethyl)-1H-benzo[d]imidazol-1-yl)-9-methyl-6-morpholino-9H-purin-8-yloxy)azetidin-1-yl)-2-methylpropan-1-one]
Ki p110 alpha/ Ki p110 delta (p110 alpha): 31
Ki (p110 delta): 0.929 nM

Compound: CCc1nc2ccccc2n1-c1nc(N2CCOCC2)c2nc(OC3CN(C(=O)C(C)C)C3C)n(C)c2n1 (centres unmarked) [Compound 149, 1-(3-(2-(2-ethyl-1H-benzo [d]imidazol-1-yl)-9-methyl-6-morpholino-9H-purin-8-yloxy)-2-methylazetidin-1-yl)-2-methylpropan-1-one]
Ki p110 alpha/ Ki p110 delta (p110 alpha): 277
Ki (p110 delta): 0.444 nM

Compound: CCc1nc2ccccc2n1-c1nc(N2CCOCC2)c2nc(OC3CN(C(=O)C4(C#N)CC4)C3)n(C)c2n1 [Compound 150, 1-(3-(2-(2-ethyl-1H-benzo [d]imidazol-1-yl)-9-methyl-6-morpholino-9H-purin-8-yloxy)azetidine-1-carbonyl) cyclopropanecarbonitrile]
Ki p110 alpha/ Ki p110 delta (p110 alpha): 30
Ki (p110 delta): 2.86 nM

Compound: CCc1nc2ccccc2n1-c1nc(N2CCOCC2)c2nc(OC3CCNCC3)n(C)c2n1 [Compound 124, 4-(2-(2-ethyl-1H-benzo[d]imidazol-1-yl)-9-methyl-8-(piperidin-4-yloxy)-9H-purin-6-yl)morpholine]
Ki p110 alpha/ Ki p110 delta (p110 alpha): 188
Ki (p110 delta): 0.91 nM

Compound: CCc1nc2ccccc2n1-c1nc(N2CCOCC2)c2nc(OC3CN(C(=O)C4CC4)C3)n(C)c2n1 [Compound 119, Cyclopropyl(3-(2-(2-ethyl-1H-benzo[d]imidazol-1-yl)-9-methyl-6-morpholino-9H-purin-8-yloxy)azetidin-1-yl)methanone]
Ki p110 alpha/ Ki p110 delta (p110 alpha): 115

Compound: CCc1nc2ccccc2n1-c1nc(N2CCOCC2)c2nc(OC3CN(C(=O)[C@@H]4CC45CCC5)C3)n(C)c2n1 [Compound 153, (R)-(3-(2-(2-ethyl-1H-benzo [d]imidazol-l-yl)-9-methyl-6-morpholino-9H-purin-8-yloxy)azetidin-1-yl) (spiro[2.3]hexan-1-yl) methanone]
Ki p110 alpha/ Ki p110 delta (p110 alpha): 159
Ki (p110 delta): 0.734 nM

Compound: CCc1nc2ccccc2n1-c1nc(N2CCOCC2)c2nc(OC3CN(C4CCS(=O)(=O)CC4)C3)n(C)c2n1 [Compound 114, 4-(2-(2-ethyl-1H-benzo[d]imidazol-1-yl)-9-methyl-8-(1-(1,1-dioxo-tetrahydro-2H-thiopyran-4-yl)azetidin-3-yloxy)-9H-purin-6-yl)morpholine]
Ki p110 alpha/ Ki p110 delta (p110 alpha): 163
Ki (p110 delta): 1.26 nM

Compound: CCc1nc2ccccc2n1-c1nc(N2CCOCC2)c2nc(OC3CCN(C(C)=O)CC3)n(C)c2n1 [Compound 102, 1-(4-(2-(2-ethyl-1H-benzo[d]imidazol-1-yl)-9-methyl-6-morpholino-9H-purin-8-yloxy)piperidin-1-yl)ethanone]
Ki p110 alpha/ Ki p110 delta (p110 alpha): 81
Ki (p110 delta): 1.02 nM

Continued, values first:

Ki p110 alpha/ Ki p110 delta (p110 alpha): 91
Ki (p110 delta): 0.321 nM
Compound: CCc1nc2ccccc2n1-c1nc(N2CCOCC2)c2nc(OC3CN(C(=O)C4(C(F)(F)F)CC4)C3)n(C)c2n1 [Compound 155, (3-(2-(2-ethyl-1H-benzo[d]imidazol-1-yl)-9-methyl-6-morpholino-9H-purin-8-yloxy)azetidin-1-yl)(1-(trifluoromethyl)cyclopropyl) methanone]

Ki p110 alpha/ Ki p110 delta (p110 alpha): 98
Ki (p110 delta): 1.05 nM
Compound: CCc1nc2ccccc2n1-c1nc(N2CCOCC2)c2nc(OC3CCN(C(=O)C4CC4)CC3)n(C)c2n1 [Compound 110, cyclopropyl(4-(2-(2-ethyl-1H-benzo[d]imidazol-1-yl)-9-methyl-6-morpholino-9H-purin-8-yloxy)piperidin-1-yl)methanone]

Ki p110 alpha/ Ki p110 delta (p110 alpha): 178
Ki (p110 delta): 0.879 nM
Compound: CCc1nc2ccccc2n1-c1nc(N2CCOCC2)c2nc(OC3CCN(C(=O)C(C)(C)C)CC3)n(C)c2n1 [Compound 113, 1-(4-(2-(2-ethyl-1H-benzo[d]imidazol-1-yl)-9-methyl-6-morpholino-9H-purin-8-yloxy)piperidin-1-yl)-2,2-dimethylpropan-1-one]

Ki p110 alpha/ Ki p110 delta (p110 alpha): 105
Ki (p110 delta): 0.252 nM
Compound: Cc1nc2ccccc2n1-c1nc(N2CCOCC2)c2nc(OC3CCN(C4CCOCC4)CC3)n(C)c2n1 [Compound 127, 4-(9-methyl-2-(2-methyl-1H-benzo[d]imidazol-1-yl)-8-(1-(tetrahydro-2H-pyran-4-yl)piperidin-4-yloxy)-9H-purin-6-yl)morpholine]

Ki p110 alpha/ Ki p110 delta (p110 alpha): 126
Compound: CCc1nc2ccccc2n1-c1nc(N2CCOCC2)c2nc(OC3CN(C(=O)C(C)(C)CO)C3)n(C)c2n1 [Compound 151, 1-(3-(2-(2-ethyl-1H-benzo [d]imidazol-1-yl)-9-methyl-6-morpholino-9H-purin-8-yloxy)azetidin-1-yl)-3-hydroxy-2,2-dimethylpropan-1-one]

Ki p110 alpha/ Ki p110 delta (p110 alpha): 93
Ki (p110 delta): 1.24 nM
Compound: CCc1nc2ccccc2n1-c1nc(N2CCOCC2)c2nc(OC3CN(C(=O)[C@H](C)OC)C3)n(C)c2n1 [Compound 120, (S)-1-(3-(2-(2-ethyl-1H-benzo[d]imidazol-1-yl)-9-methyl-6-morpholino-9H-purin-8-yloxy)azetidin-1-yl)-2-methoxypropan-1-one]

Ki p110 alpha/ Ki p110 delta (p110 alpha): 64
Ki (p110 delta): 1.53 nM
Compound: CO[C@H](C)c1nc2ccccc2n1-c1nc(N2CCOCC2)c2nc(OC3CN(C(=O)C(C)C)C3)n(C)c2n1 [Compound 140, (R)-1-(3-(2-(2-(1-methoxyethyl)-1H-benzo[d]imidazol-1-yl)-9-methyl-6-morpholino-9H-purin-8-yloxy)azetidin-1-yl)-2-methylpropan-1-one]

Ki p110 alpha/ Ki p110 delta (p110 alpha): 485
Ki (p110 delta): 0.98 nM
Compound: Cn1c(OC2CCN(C3CCOCC3)CC2)nc2c(N3CCOCC3)nc(-c3c(F)ccc4[nH]ccc34)nc21 [Compound 125, 4-(2-(5-fluoro-1H-indol-4-yl)-9-methyl-8-(1-(tetrahydro-2H-pyran-4-yl)piperidin-4-yloxy)-9H-purin-6-yl)morpholine]

Ki p110 alpha/ Ki p110 delta (p110 alpha): 102
Ki (p110 delta): 1.64 nM
Compound: CC(C)c1nc2ccccc2n1-c1nc(N2CCOCC2)c2nc(OC3CN(C4COC4)C3)n(C)c2n1 [Compound 111, 4-(2-(2-isopropyl-1H-benzo[d]imidazol-1-yl)-9-methyl-8-(1-(oxetan-3-yl)azetidin-3-yloxy)-9H-purin-6-yl)morpholine]

Ki p110 alpha/ Ki p110 delta (p110 alpha): 76
Ki (p110 delta): 0.539 nM
Compound: CCc1nc2ccccc2n1-c1nc(N2CCOCC2)c2nc(OC3CN(C(=O)C4(COC)CC4)C3)n(C)c2n1 [Compound 156, (3-(2-(2-ethyl-1H-benzo[d]imidazol-1-yl)-9-methyl-6-morpholino-9H-purin-8-yloxy)azetidin-1-yl)(1-(methoxymethyl)cyclopropyl) methanone]

Ki p110 alpha/ Ki p110 delta (p110 alpha): 102
Ki (p110 delta): 0.573 nM
Compound: CCc1nc2ccccc2n1-c1nc(N2CCOCC2)c2nc(OC3CN(C(=O)C4C[C@H]4F)C3)n(C)c2n1 (stereo partly drawn) [Compound 154, (3-(2-(2-ethyl-1H-benzo [d]imidazol-1-yl)-9-methyl-6-morpholino-9H-purin-8-yloxy)azetidin-1-yl)((2R)-2-fluorocyclopropyl)methanone]

Ki p110 alpha/ Ki p110 delta (p110 alpha): 259
Ki (p110 delta): 0.34 nM
Compound: CCc1nc2ccccc2n1-c1nc(N2CCOCC2)c2nc(OC3CN(C(=O)C4CC4)C3C)n(C)c2n1 (centres unmarked) [Compound 148, cyclopropyl(3-(2-(2-ethyl-1H-benzo[d]imidazol-1-yl)-9-methyl-6-morpholino-9H-purin-8-yloxy)-2-methylazetidin-1-yl)methanone]
